Target: T1, porcine serotonin transporter (pSERT) (Sus scrofa, UniProt F1RN70)
T1 construct: gene SLC6A4; native full-length pSERT from porcine brain; model residues 116-654; with 15B8 Fab
Assay: cryo-EM structure ([…] Å); [3H]paroxetine competition SPA with purified native pSERT
Assay type: binding

T1 sequence (F1RN70 38-667): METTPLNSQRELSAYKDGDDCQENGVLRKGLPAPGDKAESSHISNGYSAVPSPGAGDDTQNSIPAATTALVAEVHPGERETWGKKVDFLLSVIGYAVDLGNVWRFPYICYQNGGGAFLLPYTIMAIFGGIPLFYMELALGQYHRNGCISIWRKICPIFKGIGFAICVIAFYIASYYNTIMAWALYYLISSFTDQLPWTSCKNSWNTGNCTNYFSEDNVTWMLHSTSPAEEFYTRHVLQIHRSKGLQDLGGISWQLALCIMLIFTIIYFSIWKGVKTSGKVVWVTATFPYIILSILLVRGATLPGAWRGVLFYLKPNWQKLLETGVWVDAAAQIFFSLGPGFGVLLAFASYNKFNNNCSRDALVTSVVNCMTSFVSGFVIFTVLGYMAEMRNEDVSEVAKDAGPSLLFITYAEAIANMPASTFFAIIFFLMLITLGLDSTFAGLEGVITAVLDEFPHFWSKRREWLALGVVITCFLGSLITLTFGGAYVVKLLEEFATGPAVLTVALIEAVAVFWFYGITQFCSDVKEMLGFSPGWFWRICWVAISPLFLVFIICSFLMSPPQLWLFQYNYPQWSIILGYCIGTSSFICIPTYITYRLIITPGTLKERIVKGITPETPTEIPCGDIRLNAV

With `CN[C@@H](C)Cc1ccccc1` [(+)-methamphetamine] the Ki was 199 ± 103 µM.
